Source: patent publication US6750245B2, “C7 carbamate substituted taxanes” (FSU Research Foundation, Inc., priority 2000, dated 2004)

System: HCT116
Test: In vitro cytotoxicity measured by the cell colony formation assay
Assay type: cell-based
Conditions: HCT116 cells; drug concentration producing 50% inhibition of colony formation; incubated with drugs 72 h at 37° C.; colonies counted after 7 days; read-out: IN VITRO ID 50 (nm) HCT116
Experimental: In Vitro Cytotoxicity Measured by the Cell Colony Formation Assay
Four hundred cells (HCT116) were plated in 60 mm Petri dishes containing 2.7 mL of medium (modified McCoy's 5a medium containing 10% fetal bovine serum and 100 units/mL penicillin and 100 µg/mL streptomycin). The cells were incubated in a CO2 incubator at 37° C. for 5 h for attachment to the bottom of Petri dishes. The compounds identified in Example 2 were made up fresh in medium at ten times the final concentration, and then 0.3 mL of this stock solution was added to the 2.7 mL of medium in the dish. The cells were then incubated with drugs for 72 h at 37° C. At the end of incubation the drug-containing media were decanted, the dishes were rinsed with 4 mL of Hank's Balance Salt Solution (HBSS), 5 mL of fresh medium was added, and the dishes were returned to the incubator for colony formation. The cell colonies were counted using a colony counter after incubation for 7 days.

Q: How did the IC50 turn out when `CCC(C)(C)OC(=O)N[C@@H](c1ccco1)[C@@H](O)C(=O)O[C@H]1C[C@@]2(O)[C@@H](OC(=O)c3ccccc3)C3[C@](C)(C(=O)[C@H](O)C(=C1C)C2(C)C)[C@@H](OC(=O)Nc1ccc(F)c(F)c1)C[C@H]1OC[C@@]31OC(C)=O` (some centres unmarked) [Compound 6404] was run?
A: < 10 nM

Q: With `C/C=C/C(=O)N[C@@H](c1ccco1)[C@@H](O)C(=O)O[C@H]1C[C@@]2(O)[C@@H](OC(=O)c3ccccc3)C3[C@](C)(C(=O)[C@H](O)C(=C1C)C2(C)C)[C@@H](OC(=O)Nc1ccccc1)C[C@H]1OC[C@@]31OC(C)=O` (some centres unmarked) [Compound 5757] as the compound, how does the IC50 read?
A: < 10 nM

Q: For `CCNC(=O)O[C@H]1C[C@H]2OC[C@@]2(OC(C)=O)C2[C@H](OC(=O)c3ccccc3)[C@]3(O)C[C@H](OC(=O)[C@H](O)[C@@H](NC(=O)C=C(C)C)c4ccco4)C(C)=C([C@@H](O)C(=O)[C@@]21C)C3(C)C` (some centres unmarked) [Compound 5588], which IC50 is on record?
A: < 1 nM

Q: With `CCNC(=O)O[C@H]1C[C@H]2OC[C@@]2(OC(C)=O)C2[C@H](OC(=O)c3ccccc3)[C@]3(O)C[C@H](OC(=O)[C@H](O)[C@@H](NC(=O)OC(C)(C)C)c4ccco4)C(C)=C([C@@H](O)C(=O)[C@@]21C)C3(C)C` (some centres unmarked) [Compound 5393] as the compound, how does the IC50 read?
A: < 1 nM

Q: How did the IC50 turn out when `CC(=O)O[C@@]12CO[C@@H]1C[C@H](OC(=O)Nc1ccc(F)c(F)c1)[C@@]1(C)C(=O)[C@H](O)C3=C(C)[C@@H](OC(=O)[C@H](O)[C@@H](NC(=O)C=C(C)C)c4ccco4)C[C@@](O)([C@@H](OC(=O)c4ccccc4)C12)C3(C)C` (some centres unmarked) [Compound 5522] was run?
A: < 1 nM

Q: How did the IC50 turn out when `CC(=O)O[C@@]12CO[C@@H]1C[C@H](OC(=O)Nc1ccc(F)c(F)c1)[C@@]1(C)C(=O)[C@H](O)C3=C(C)[C@@H](OC(=O)[C@H](O)[C@@H](NC(=O)OC(C)(C)C)c4ccco4)C[C@@](O)([C@@H](OC(=O)c4ccccc4)C12)C3(C)C` (some centres unmarked) [Compound 5415] was run?
A: < 1 nM

Q: `CCC(C)(C)OC(=O)N[C@@H](c1ccco1)[C@@H](O)C(=O)O[C@H]1C[C@@]2(O)[C@@H](OC(=O)c3ccccc3)C3[C@](C)(C(=O)[C@H](O)C(=C1C)C2(C)C)[C@@H](OC(=O)Nc1ccccc1)C[C@H]1OC[C@@]31OC(C)=O` (some centres unmarked) [Compound 6399] was tested. Which IC50 did it give?
A: < 10 nM

Q: For `C/C=C/C(=O)N[C@@H](c1ccco1)[C@@H](O)C(=O)O[C@H]1C[C@@]2(O)[C@@H](OC(=O)c3ccccc3)C3[C@](C)(C(=O)[C@H](O)C(=C1C)C2(C)C)[C@@H](OC(=O)NC1CCCCC1)C[C@H]1OC[C@@]31OC(C)=O` (some centres unmarked) [Compound 5895], which IC50 is on record?
A: < 1 nM

Q: With `CC=CC(=O)NC(c1ccco1)C(O)C(=O)OC1CC2(O)C(OC(=O)c3ccccc3)C3C4(OC(C)=O)COC4CC(OC(=O)Nc4ccc(F)c(F)c4)C3(C)C(=O)C(O)C(=C1C)C2(C)C` (centres unmarked) [Compound 5800] as the compound, how does the IC50 read?
A: < 10 nM

Q: For `CC(=O)O[C@@]12CO[C@@H]1C[C@H](OC(=O)Nc1ccccc1)[C@@]1(C)C(=O)[C@H](O)C3=C(C)[C@@H](OC(=O)[C@H](O)[C@@H](NC(=O)C=C(C)C)c4ccco4)C[C@@](O)([C@@H](OC(=O)c4ccccc4)C12)C3(C)C` (some centres unmarked) [Compound 5535, N-Debenzoyl-N-isobutenyl-3′-desphenyl-3′-(2-furyl)-7-phenylcarbamoyl taxol], which IC50 is on record?
A: < 1 nM

Q: How did the IC50 turn out when `CC(=O)O[C@@]12CO[C@@H]1C[C@H](OC(=O)NC1CCCCC1)[C@@]1(C)C(=O)[C@H](O)C3=C(C)[C@@H](OC(=O)[C@H](O)[C@@H](NC(=O)OC(C)(C)C)c4ccco4)C[C@@](O)([C@@H](OC(=O)c4ccccc4)C12)C3(C)C` (some centres unmarked) [Compound 5373] was run?
A: < 10 nM

Q: With `CCCNC(=O)O[C@H]1C[C@H]2OC[C@@]2(OC(C)=O)C2[C@H](OC(=O)c3ccccc3)[C@]3(O)C[C@H](OC(=O)[C@H](O)[C@@H](NC(=O)OC(C)(C)C)c4ccco4)C(C)=C([C@@H](O)C(=O)[C@@]21C)C3(C)C` (some centres unmarked) [Compound 5665] as the compound, how does the IC50 read?
A: > 50 nM

Q: Which IC50 does the source give for `CC(=O)O[C@@]12CO[C@@H]1C[C@H](OC(=O)NC(C)(C)C)[C@@]1(C)C(=O)[C@H](O)C3=C(C)[C@@H](OC(=O)[C@H](O)[C@@H](NC(=O)OC(C)(C)C)c4ccco4)C[C@@](O)([C@@H](OC(=O)c4ccccc4)C12)C3(C)C` (some centres unmarked) [Compound 5454] here?
A: < 10 nM

Q: For `C/C=C/C(=O)N[C@@H](c1ccco1)[C@@H](O)C(=O)O[C@H]1C[C@@]2(O)[C@@H](OC(=O)c3ccccc3)C3[C@](C)(C(=O)[C@H](O)C(=C1C)C2(C)C)[C@@H](OC(=O)NCC)C[C@H]1OC[C@@]31OC(C)=O` (some centres unmarked) [Compound 5822], which IC50 is on record?
A: < 10 nM
